For this test, the target named is T1, human GPR119 (Homo sapiens, UniProt Q8TDV5).
T1 sequence (Q8TDV5 1-308 limits assumed): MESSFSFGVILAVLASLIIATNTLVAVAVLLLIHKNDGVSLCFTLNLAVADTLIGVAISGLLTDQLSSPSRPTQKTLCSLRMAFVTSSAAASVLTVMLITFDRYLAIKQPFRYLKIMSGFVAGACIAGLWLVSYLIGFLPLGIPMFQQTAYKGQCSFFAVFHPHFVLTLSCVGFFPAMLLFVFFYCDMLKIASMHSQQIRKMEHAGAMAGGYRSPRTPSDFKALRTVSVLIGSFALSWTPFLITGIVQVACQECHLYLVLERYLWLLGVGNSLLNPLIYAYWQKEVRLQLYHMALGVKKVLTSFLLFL
Description: Measurement of GPR119 signaling (cAMP assay) in cells stably transfected with human GPR119. It counts as cell-based. As to conditions: table column; cAMP stimulation, human GPR119; read-out: GPR119 Human EC50. Background: cAMP levels reflect the balance of adenylyl cyclase and phosphodiesterase activity.

As usually defined, the EC50 is the concentration giving half of the maximal effect.

Turning to `CC(C)c1noc(N2CCC([C@H]3C[C@H]3CCOc3ccc(CC(=O)N4CCCCC4)c(F)c3)CC2)n1` [Example 145], the EC50 came to 1.7 nM.

With `CC(C)c1noc(N2CCC([C@H]3C[C@H]3CCOc3ccc(CC(=O)N4CCCC4)c(F)c3)CC2)n1` [Example 146], the EC50 was 1.2 nM.

Turning to `CC(C)c1noc(N2CCC([C@H]3C[C@H]3CCOc3ccc(CC(=O)N4CC(F)(F)C4)c(F)c3)CC2)n1` [Example 147], the EC50 was determined as 0.55 nM.

Take `CC(C)c1noc(N2CCC([C@H]3C[C@H]3CCOc3ccc(CC(=O)N4CCC(F)(F)CC4)c(F)c3)CC2)n1` [Example 148]: the EC50 was 1.7 nM.

Turning to `CC(C)c1noc(N2CCC([C@H]3C[C@H]3CCOc3ccc(CC(=O)N4CC(C(C)(C)O)C4)c(F)c3)CC2)n1` [Example 149], the EC50 came out at 8.2 nM.

Regarding `CC(C)c1noc(N2CCC([C@H]3C[C@H]3CCOc3ccc(CC(=O)NC4CC4)c(F)c3)CC2)n1` [Example 150], the EC50 was 2.1 nM.

Regarding `CC(C)c1noc(N2CCC([C@H]3C[C@H]3CCOc3ccc(CC(=O)NC4CCC4)c(F)c3)CC2)n1` [Example 151], the EC50 was determined as 3.2 nM.

With `CC(C)c1noc(N2CCC([C@H]3C[C@H]3CCOc3ccc(CC(=O)NC4CC4(F)F)c(F)c3)CC2)n1` (stereo partly drawn) [Example 152], the EC50 amounted to 6.3 nM.

Turning to `CC(C)c1noc(N2CCC([C@H]3C[C@H]3CCOc3ccc(CC(=O)NC4(C(F)(F)F)CC4)c(F)c3)CC2)n1` [Example 153], the EC50 is 4.3 nM.

In the case of `CC(C)c1noc(N2CCC([C@H]3C[C@H]3CCOc3ccc(CC(=O)N(C)C4CCCC4)c(F)c3)CC2)n1` [Example 154], the EC50 was 5 nM.

Consider `CC(C)c1noc(N2CCC([C@H]3C[C@H]3CCOc3ccc(CC(=O)NCC4CC4)c(F)c3)CC2)n1` [Example 155], for which the 50% effective concentration (EC50) was 7.5 nM.

For the molecule `CC(C)c1noc(N2CCC([C@H]3C[C@H]3CCOc3ccc(CC(=O)NC4CCCC4)c(F)c3)CC2)n1` [Example 156], the EC50 was found to be 5.4 nM.

`CC(C)c1noc(N2CCC([C@H]3C[C@H]3CCOc3ccc(CC(=O)NCC(F)(F)F)c(F)c3)CC2)n1` [Example 157]: the concentration giving a half-maximal response (EC50) amounted to 3.9 nM.

On to `CC(C)c1noc(N2CCC([C@H]3C[C@H]3CCOc3ccc(CC(=O)N4C[C@H](F)[C@@H](F)C4)c(F)c3)CC2)n1` [Example 158], for which the EC50 came out at 1.1 nM.

`CC(C)c1noc(N2CCC([C@H]3C[C@H]3CCOc3ccc(CC(=O)N4Cc5cccnc5C4)c(F)c3)CC2)n1` [Example 159]: the EC50 came out at 0.93 nM.

For the molecule `CC(C)c1noc(N2CCC([C@H]3C[C@H]3CCOc3ccc(CC(=O)N(C)C4CCOCC4)c(F)c3)CC2)n1` [Example 160], the EC50 was determined as 4.8 nM.

`CC(C)c1noc(N2CCC([C@H]3C[C@H]3CCOc3ccc(CC(=O)N(C)C4CCOC4)c(F)c3)CC2)n1` (stereo partly drawn) [Example 161]: the EC50 turned out to be 1.1 nM.

Take `CC(C)c1noc(N2CCC([C@H]3C[C@H]3CCOc3ccc(CC(=O)N(C)C4CCS(=O)(=O)C4)c(F)c3)CC2)n1` (stereo partly drawn) [Example 162]: the 50% effective concentration (EC50) turned out to be 2 nM.

As for `Cc1nc(CN(C)C(=O)Cc2ccc(OCC[C@@H]3C[C@@H]3C3CCN(c4nc(C(C)C)no4)CC3)cc2F)cs1` [Example 163], the EC50 came to 2.3 nM.

On to `CC(C)c1noc(N2CCC([C@H]3C[C@H]3CCOc3ccc(CC(=O)N(C)Cc4ccon4)c(F)c3)CC2)n1` [Example 164], for which the EC50 was determined as 1.7 nM.

For `CC(C)c1noc(N2CCC([C@H]3C[C@H]3CCOc3ccc(CC(=O)N(C)C4(C)CCCC4)c(F)c3)CC2)n1` [Example 165], the EC50 was determined as 8.1 nM.

On to `CC(C)c1noc(N2CCC([C@H]3C[C@H]3CCOc3ccc(CC(=O)N(C)Cc4cscn4)c(F)c3)CC2)n1` [Example 166], for which the EC50 is 2.6 nM.

With `CC(C)c1noc(N2CCC([C@H]3C[C@H]3CCOc3ccc(CC(=O)N(C)Cc4cc[nH]n4)c(F)c3)CC2)n1` [Example 167], the concentration for a half-maximal effect (EC50) was determined as 3.1 nM.

`CC(C)c1noc(N2CCC([C@H]3C[C@H]3CCOc3ccc(CC(=O)N(C)CCn4cncn4)c(F)c3)CC2)n1` [Example 168]: the EC50 was 7.9 nM.

`CC(C)c1noc(N2CCC([C@H]3C[C@H]3CCOc3ccc(CC(=O)N(C)CC4CCC(=O)N4C)c(F)c3)CC2)n1` (stereo partly drawn) [Example 169]: the EC50 was determined as 7.7 nM.

As for `CC(C)c1noc(N2CCC([C@H]3C[C@H]3CCOc3ccc(CC(=O)N(C)CC4CCC(=O)N4)c(F)c3)CC2)n1` (stereo partly drawn) [Example 170], the EC50 amounted to 7.9 nM.

Take `CC(C)c1noc(N2CCC([C@H]3C[C@H]3CCOc3ccc(CC(=O)N(C)Cc4cncs4)c(F)c3)CC2)n1` [Example 171]: the EC50 was 1.5 nM.

In the case of `CC(C)c1noc(N2CCC([C@H]3C[C@H]3CCOc3ccc(CC(=O)N(C)C4COC4)c(F)c3)CC2)n1` [Example 172], the EC50 is 0.88 nM.

Turning to `CC(C)c1noc(N2CCC([C@H]3C[C@H]3CCOc3ccc(CC(=O)N4CCc5ccsc5C4)c(F)c3)CC2)n1` [Example 173], the half-maximal effective concentration (EC50) was found to be 2.2 nM.

For `CC(C)c1noc(N2CCC([C@H]3C[C@H]3CCOc3ccc(CC(=O)N4CCC(C)(O)C4)c(F)c3)CC2)n1` (stereo partly drawn) [Example 174], the EC50 turned out to be 11.4 nM.

In the case of `CC(C)c1noc(N2CCC([C@H]3C[C@H]3CCOc3ccc(CC(=O)N4CCc5cncnc5C4)c(F)c3)CC2)n1` [Example 175], the EC50 turned out to be 3.2 nM.

Consider `CC(C)c1noc(N2CCC([C@H]3C[C@H]3CCOc3ccc(CC(=O)N4CCn5c(nnc5C5CC5)C4)c(F)c3)CC2)n1` [Example 176], for which the concentration for a half-maximal effect (EC50) was 5.7 nM.

In the case of `CC(C)c1noc(N2CCC([C@H]3C[C@H]3CCOc3ccc(CC(=O)N4CCc5oncc5C4)c(F)c3)CC2)n1` [Example 177], the EC50 turned out to be 1.8 nM.

For the molecule `CC(C)c1noc(N2CCC([C@H]3C[C@H]3CCOc3ccc(CC(=O)N4CCn5nc(C(F)(F)F)nc5C4C)c(F)c3)CC2)n1` (stereo partly drawn) [Example 178], the EC50 came to 14 nM.

As for `Cc1nc2c(s1)CN(C(=O)Cc1ccc(OCC[C@@H]3C[C@@H]3C3CCN(c4nc(C(C)C)no4)CC3)cc1F)CC2` [Example 179], the EC50 was found to be 2.6 nM.

For the molecule `CC(C)c1noc(N2CCC([C@H]3C[C@H]3CCOc3ccc(CC(=O)N4CCn5ccnc5C4)c(F)c3)CC2)n1` [Example 180], the EC50 was found to be 4.9 nM.

Regarding `CC(C)c1noc(N2CCC([C@H]3C[C@H]3CCOc3ccc(CC(=O)N4CCc5cccnc5C4)c(F)c3)CC2)n1` [Example 181], the EC50 is 3.7 nM.

Consider `CC(C)c1noc(N2CCC([C@H]3C[C@H]3CCOc3ccc(CC(=O)N4Cc5nnc(C(F)(F)F)n5C(C)C4)c(F)c3)CC2)n1` (stereo partly drawn) [Example 182], for which the EC50 came out at 8.7 nM.

For `Cc1nc2c(o1)CN(C(=O)Cc1ccc(OCC[C@@H]3C[C@@H]3C3CCN(c4nc(C(C)C)no4)CC3)cc1F)CC2` [Example 183], the EC50 amounted to 2.1 nM.

With `CC(C)c1noc(N2CCC([C@H]3C[C@H]3CCOc3ccc(CC(=O)N4CCc5nc(C(F)(F)F)sc5C4)c(F)c3)CC2)n1` [Example 184], the EC50 is 3.5 nM.

As for `CC(C)c1noc(N2CCC([C@H]3C[C@H]3CCOc3ccc(CC(=O)N4Cc5nnc(C(F)(F)F)n5C(C)(C)C4)c(F)c3)CC2)n1` [Example 185], the concentration for a half-maximal effect (EC50) is 8.8 nM.

For the molecule `CC(C)c1noc(N2CCC([C@H]3C[C@H]3CCOc3ccc(CC(=O)N4CC(O)(C(F)(F)F)C4)c(F)c3)CC2)n1` [Example 186], the EC50 worked out at 2.6 nM.

With `CC(C)c1noc(N2CCC([C@H]3C[C@H]3CCOc3ccc(CC(=O)N4CC(n5cccn5)C4)c(F)c3)CC2)n1` [Example 187], the EC50 was found to be 3 nM.

In the case of `CC(C)c1noc(N2CCC([C@H]3C[C@H]3CCOc3ccc(CC(=O)N4CC(n5ccnc5)C4)c(F)c3)CC2)n1` [Example 188], the EC50 stood at 6.4 nM.

Take `CC(C)c1noc(N2CCC([C@H]3C[C@H]3CCOc3ccc(CC(=O)N4Cc5sccc5C(O)C4)c(F)c3)CC2)n1` (stereo partly drawn) [Example 189]: the EC50 stood at 4.7 nM.

Consider `CC(C)c1noc(N2CCC([C@H]3C[C@H]3CCOc3ccc(CC(=O)N4CC(c5cccnc5)C4)c(F)c3)CC2)n1` [Example 190], for which the EC50 came to 3.6 nM.

Consider `CC(C)c1noc(N2CCC([C@H]3C[C@H]3CCOc3ccc(CC(=O)NC4CCC(F)(F)C4)c(F)c3)CC2)n1` (stereo partly drawn) [Example 191], for which the EC50 was 2.8 nM.

As to `Cc1nc2c([nH]1)CN(C(=O)Cc1ccc(OCC[C@@H]3C[C@@H]3C3CCN(c4nc(C(C)C)no4)CC3)cc1F)C2` [Example 192], the EC50 amounted to 4.2 nM.

Regarding `CC(C)c1noc(N2CCC([C@H]3C[C@H]3CCOc3ccc(CC(=O)N4CCc5nccnc5C4)c(F)c3)CC2)n1` [Example 193], the EC50 turned out to be 1.3 nM.

For `CC(C)c1noc(N2CCC([C@H]3C[C@H]3CCOc3ccc(CC(=O)N4CCn5nc(C(F)(F)F)nc5C4)c(F)c3)CC2)n1` [Example 194], the EC50 came out at 1.5 nM.

On to `CC(C)c1noc(N2CCC([C@H]3C[C@H]3CCOc3ccc(CC(=O)N4CCn5ncnc5C4)c(F)c3)CC2)n1` [Example 195], for which the EC50 was found to be 1.6 nM.

In the case of `Cc1nc2c(o1)CCN(C(=O)Cc1ccc(OCC[C@@H]3C[C@@H]3C3CCN(c4nc(C(C)C)no4)CC3)cc1F)C2` [Example 196], the concentration giving a half-maximal response (EC50) is 1.4 nM.

As to `CC(C)c1noc(N2CCC([C@H]3C[C@H]3CCOc3ccc(CC(=O)N4CCc5[nH]nnc5C4)c(F)c3)CC2)n1` [Example 197], the EC50 turned out to be 2.9 nM.

Take `COCc1noc(N2CCC([C@H]3C[C@H]3CCOc3ccc(CC(=O)NC4CC4)c(F)c3)CC2)n1` [Example 198]: the EC50 is 13 nM.

On to `COCc1noc(N2CCC([C@H]3C[C@H]3CCOc3ccc(CC(=O)N4CC(F)C4)c(F)c3)CC2)n1` [Example 199], for which the EC50 amounted to 2 nM.

Take `COCc1noc(N2CCC([C@H]3C[C@H]3CCOc3ccc(CC(=O)N4CC(F)(F)C4)c(F)c3)CC2)n1` [Example 200]: the EC50 worked out at 1.2 nM.

Regarding `COCc1noc(N2CCC([C@H]3C[C@H]3CCOc3ccc(CC(=O)N(C)C)c(F)c3)CC2)n1` [Example 201], the EC50 stood at 5.9 nM.

These data come from patent US8957062B2, “Substituted cyclopropyl compounds, compositions containing such compounds and methods of treatment” (Merck Sharp & Dohme Corp., priority 2011, dated 2015).
